Source: patent EP1311486B1, “USES OF THALIPORPHINE OR ITS DERIVATIVES IN TREATMENT OF CARDIAC DISEASES AND PREPARATION OF SAME” (Lotus Pharmaceutical Co., Ltd., priority 2000, dated 2002)

Experiments:
[1] = test system: transient outward potassium current (Ito); assay: Inhibition of transient outward potassium current; details: rats
Experimental: (§1) Moreover, 3-10µM THP prolongs the action potential duration in the atria or ventricles of both rats and guinea pigs (data not shown).

atria or ventricles = assay: Action potential duration in atria or ventricles; details: 3-10µM, data not shown
Experimental: as §1

[2] = DPPH radical scavenging, absorbance at 517 nm; format: biochemical; details: DPPH 100µM, 25°C, 30 minutes
Experimental: After incubation of various concentrations of THP with 1,1-diphenyl-2-picrylhydrazyl (DPPH, 100µM) at room temperature (25°C) for 30 minutes, decrease in the absorbance for DPPH at 517 nm was measured to determine the dose-response curve of THP in scavenging DPPH radicals.
In the 1,1-diphenyl-2-picrylhydrazyl (DPPH) assay system, the free radical scavenging activity of THP is expressed as IC0.200. The decrease in optical absorbance at 517 nm after addition of THP is monitored following the trapping of the unpaired electron of DPPH. Referring to FIG.4, THP scavenges DPPH in a concentration-dependent manner with IC0.200 of 12.4µmol/L.

## COc1cc2c(cc1OC)-c1c(O)c(OC)cc3c1C(C2)N(C)CC3 (single isomer, unassigned; (+)) [THP, (+)-Thaliporphine]
[1]
  transient outward potassium current (Ito): markedly inhibit
Atria or ventricles; atria or ventricles of guinea pigs
  action potential duration: prolongs
Atria or ventricles; atria or ventricles of rats
  action potential duration: prolongs
[2]
  IC0.200, scavenging of DPPH: 12.4 µmol/L
